In patent publication US8304422B2, “Compositions and methods for inhibition of the JAK pathway” (Rigel Pharmaceuticals, Inc., priority 2007, dated 2012):

Test system: BaF3 V617F cells; UKE-1
Assay: Proliferation Assay (Cell Titer-Glo; Example 7)
Assay type: cell-based
Details: proliferation 72 hours, inhibit JAK2 activity, cell line (BaF3 V617F or UKE-1) not stated
In short: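 Proliferation IC50s reflect 72 h compound exposure at 37 °C, read by Cell Titer-Glo luminescence. Compound was serially diluted 3-fold from a 5 mM DMSO stock and added as a 2× solution; BaF3 V617F cells were grown in RPMI/10% FBS, UKE-1 in Iscove's DMEM with FBS, equine serum and hydrocortisone.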

| Molecule | IC50 [nM] |
| --- | --- |
| COc1cc(C)c(Nc2ncc(Cl)c(Nc3ccc(CCNS(=O)(=O)C4CC4)cc3)n2)c(C)c1 [II-46, 5-Chloro-N4[4-(N-cyclopropylsulfonylamino)ethylphenyl]-N2-[4-(2,6-dimethyl-methoxy)phenyl]-2,4-pyrimidinediamine] | 592 |
| 5-Chloro-N4-[4-(N-cyclopropylsulfonylamino)methylphenyl]-N2-[4-(N-ethylpiperizin-4-yl)phenyl]-2,4-pyrimidinediamine [II-205] | 135 |
| CCNS(=O)(=O)NCc1cccc(Nc2nc(Nc3ccc(N4CCN(C)CC4)c(C)c3)ncc2F)c1 [II-139, N4-[3-((Ethylamino)sulfonylamino)methylphenyl]-5-fluoro-N2-[3-methyl-4-(4-methyl-1-piperazinyl)phenyl]-2,4-pyrimidinediamine] | 4330 |
| COc1cc(Nc2ncc(Cl)c(Nc3cccc(CNS(=O)(=O)C4CC4)c3)n2)cc(OC)c1OC [II-189, 5-Chloro-N4-[3-(N-cyclopropylsulfonylamino)methylphenyl]-N2-[3,4,5-trimethoxyphenyl]-2,4-pyrimidinediamine] | 546 |
| CC1CN(CCOc2ccc(Nc3ncc(Cl)c(Nc4ccc(CCNS(=O)(=O)C5CC5)cc4)n3)cc2)CC(C)O1 (centres unmarked) [II-49] | 339 |
| Cc1cnc(Nc2ccc(N3CCN(C)CC3)cc2)nc1Nc1ccc(CNS(=O)(=O)N(C)C)cc1 [II-104, N4-[(4-(Dimethylamino)sulfonylamino)methylphenyl]-5-methyl-N2-[4-(4-methyl-1-piperazinyl)phenyl]-2,4-pyrimidinediamine] | 349 |

More lines, now with the values ahead:

| IC50 [nM] | Molecule |
| --- | --- |
| 701 | CN1CCC(c2ccc(Nc3ncc(Cl)c(Nc4cccc(CNS(=O)(=O)C5CC5)c4)n3)cc2)CC1 [II-190, 5-Chloro-N4-[3-(N-cyclopropylsulfonylaminomethyl)phenyl]-N2-[4-(N-methylpiperidin-4-yl)phenyl]-2,4-pyrimidinediamine] |
| 63.6 | CCOc1c(C)cc(Nc2ncc(C)c(Nc3ccc(CNS(=O)(=O)NC4CC4)cc3)n2)cc1C [II-163, N4-[4-((N-Cyclopropylamino)sulfonylamino)methylphenyl]-N2-(3,5-dimethyl-4-ethoxyphenyl)-5-methyl-2,4-pyrimidinediamine] |
| 55.6 | CCOc1c(C)cc(Nc2ncc(C)c(Nc3ccc(CNS(=O)(=O)C4CC4)cc3)n2)cc1C [II-214, 5-Methyl-N4-[4-(N-cyclopropylsulfonylamino)methylphenyl]-N2-[3,5-dimethyl-4-ethoxyphenyl]-2,4-pyrimidinediamine] |
| 595 | Cc1cnc(Nc2ccc(N3CCN(C)CC3)cc2F)nc1Nc1ccc(CCNS(=O)(=O)C2CC2)cc1 [II-73] |
| 428 | CCCOc1c(C)cc(Nc2ncc(Cl)c(Nc3ccc(CNS(=O)(=O)NC4CC4)cc3C)n2)cc1C [II-178, 5-Chloro-N2-(3,5-dimethyl-4-propoxyphenyl)-N4-[2-methyl-4-((N-cyclopropylamino)sulfonylamino)methylphenyl]-2,4-pyrimidinediamine] |
| 194 | COc1c(C)cc(Nc2ncc(C)c(Nc3ccc(CNS(=O)(=O)N(C)C)cc3)n2)cc1Cl [II-101, 5-Methyl-N2-(3-chloro-4-methoxy-5-methylphenyl)-N4-[(4-(dimethylamino)sulfonylamino)methylphenyl]-2,4-pyrimidinediamine] |
| 698 | Cc1cc(OC(C)C)cc(C)c1Nc1ncc(Cl)c(Nc2ccc(CCNS(=O)(=O)C3CC3)cc2)n1 [II-48, 5-Chloro-N4[4-(N-cyclopropylsulfonylamino)ethylphenyl]-N2-[4-(2,6-dimethyl-isopropoxy)phenyl]-2,4-pyrimidinediamine] |
| 371 | Cc1cnc(Nc2ccc(N3CCN(C4CC5CCC4C5)CC3)c(F)c2)nc1Nc1ccc(CNS(=O)(=O)C2CC2)cc1 (centres unmarked) [II-78, N-(4-(2-(4-(4-(bicyclo[2.2.1]heptan-2-yl)piperazin-1-yl)-3-fluorophenylamino)-5-methylpyrimidin-4-ylamino)benzyl)cyclopropanesulfonamide] |
